# Test results: BindingDB's records for doi:10.1016/s0960-894x(02)00699-6 (Sapienza University of Rome, 2002)
# Target: Diamine oxidase [copper-containing] (Sus scrofa)
# Experiment: Inhibitory activity against Swine kidney diamine oxidase (SKDAO)
row,Ki,Structure (SMILES)
1,25 µM,"CC(=O)N1N=C(c2ccc(O)cc2O)CC1c1cccc(C)c1 (centres undefined) [1-[3-(2,4-Dihydroxy-phenyl)-5-m-tolyl-4,5-dihydro-pyrazol-1-yl]-ethanone]"
2,100 µM,"CC(=O)N1N=C(c2ccc(O)cc2O)CC1c1ccccc1C (centres undefined) [1-[3-(2,4-Dihydroxy-phenyl)-5-o-tolyl-4,5-dihydro-pyrazol-1-yl]-ethanone]"
3,8 µM,"CC(=O)N1N=C(c2ccccc2O)CC1c1cccc(C)c1 (centres undefined) [1-[3-(2-Hydroxy-phenyl)-5-m-tolyl-4,5-dihydro-pyrazol-1-yl]-ethanone]"
4,5.5 µM,"CC(=O)N1N=C(c2ccccc2O)CC1c1ccccc1C (centres undefined) [1-[3-(2-Hydroxy-phenyl)-5-o-tolyl-4,5-dihydro-pyrazol-1-yl]-ethanone]"
